Reference: patent publication US9289443B2, “Pharmaceutical composition and method for preventing or treating hepatitis C” (INDUSTRIAL TECHNOLOGY RESEARCH INSTITUTE, priority 2010, dated 2016)
Like-named read-outs stand apart in the source and are kept apart here.

Tests used:
[1] = tested on: Huh-luc/neo-ET cells; assay: Cell cytotoxic test (MTT) on Huh-luc/neo-ET cells; format: cell-based; settings: two-day culture; for CC15: concentration for 15% cell kill; for CC50: concentration for 50% cell kill
Procedure: (§1) Cell Cytotoxic Test on Huh-luc/noe-ET Cells
(§2) Huh-luc/neo-ET cells with a concentration of 2.5×10^4 cells/100 μl/well were seeded into a 96 well culture plate (Corning Incorporation COSTAR, 3599) and placed into a cell incubator for culturing.
(§3) The next day, the oleanolic acid derivatives as listed in the following Tables 1 and 2 were diluted with a DMEM culture medium to the concentrations of 28.73 μg/ml, 9.57 μg/ml, 3.19 μg/ml, 1.06 μg/ml, 0.35 μg/ml, 0.11 μg/ml, 0.039 μg/ml and 0.013 μg/ml, respectively, or diluted to the concentrations of 114.92 μg/ml, 38.33 μg/ml, 12.77 μg/ml, 4.25 μg/ml, 1.42 μg/ml, 0.46 μg/ml, 0.16 μg/ml and 0.057 μg/ml, respectively. The initial medium in the 96 well culture plate was sucked out by a vacuum pump (DOAT-704AA) without removing the cells. Then, the culture medium containing the oleanolic acid derivatives were added into the 96 well culture plate containing 100 μl/well of the cells as the experiment groups, while the untreated culture mediums were added to the cells as a control.
(§4) After a two-day culture, the medium was removed and each well containing cells was washed by 100 μl of 1×PBS (1 mM KH2PO4, 10 mM Na2HPO4, 137 mM NaCl, 2.7 mM KCl) twice. Precipitates were recorded and PBS was removed. 50 μl of the medium containing 0.5 mg/ml of MTT (Sigma, M2128) was added into each well of the 96 well culture plate. The 96 well culture plate was placed in a CO2 culture incubator for 1 hour. Subsequently, 150 μl of DMSO (Riedel-de Haül, 60153) was added to each well of the 96 well culture plate and vortexed (KS shaker Type 670) to thoroughly mix the resulting purple precipitates. The 96 well culture plate was then placed in a continuous wave length microwell plate analysis system (Molecular Devices, SPECTRAMAX 190) to measure the absorbance of cells at a wavelength of 560 nm.
(§5) The average absorbance of the control was set as 100% of the cell survival rates (%) to calculate the cell survival rates (%) of the experiment groups with different concentrations of the oleanolic acid derivatives.
(§6) The cell survival rate was calculated by the following formula: Absorbance of the experiment group/Absorbance of the control×100%
(§7) The data of the cell survival rates for all experiment groups were plotted on an x-y graph to see the distribution. A trend line was obtained. […]

[2] = Cell cytotoxic test (MTT) on Huh-luc/neo-ET cells; format: cell-based; settings: human, concentration for 50% cell kill, two-day culture
Procedure: as §1, §2, §3, §4, §5, §6, §7

[3] = tested on: HCV replicon system (Huh-luc/neo-ET cell carrying I389luc-ubi-NS3-3'/ET); assay: Inhibition of the HCV replication by determining the firefly luciferase activity (HCV replicon system); format: cell-based, Hepatitis C virus; settings: for EW (CC50/IC50): ratio of CC50/IC50
From the text: HCV replicon system was used to test the effects of compounds on the treatment and prevention of hepatitis C. The HCV replicon system has been acknowledged as a screening tool for new drugs (Lohmann, V. et al., 1999, Replication of subgenomic hepatitis C virus RNAs in hepatoma cell line, Science. Vol. 285, 110-113; Bartenschlager, R. 2002, Hepatitis C virus replicons: potential role for drug development, Nature Reviews/Drug Discovery. Vol. 1, 911-916; Vorlijk, J. M. et al., 2003, A replicon-based bioassay for the measurement of interferons in patients with chronic hepatitis C, Journal of Virological Methods. 110:201-209). The HCV replicon system includes a Huh-luc/neo-ET cell carrying I389luc-ubi-NS3-3′/ET gene construct which monitors the replicative capability of the HCV. In the HCV replicon system, a firefly luciferase-ubiquitin-neomycin fusion protein is expressed by the translation of the internal ribosomal entry site (IRES) of the HCV, and the hepatitis C viral nonstructural proteins (NS3-5B), which includes protease, helicase and polymerase, are expressed by the translation of the IRES of the encephalomyocarditis virus (EMCV).
The IRES of the hepatitis C virus or the hepatitis C viral nonstructural proteins consist of a replication complex. When the replication complex is affected by the candidate compound, the activity of the HCV replicon system is inhibited and the activity of the luciferase is reduced. Accordingly, the inhibition of the HCV can be estimated by determining the activity of the intensity of the luciferase expressed by the Huh-luc/noe-ET cell.
Inhibition of the HCV Replication by Determining the Firefly Luciferase Activity
as §2
The oleanolic acid derivatives as listed in Table 2 were co-cultured with Huh-luc/neo-ET cells for 2 days. The mediums were washed twice by 100 μl of 1×PBS (1 mM KH2PO4, 10 mM Na2HPO4, 137 mM NaCl, 2.7 mM KCl) and PBS was removed. 35 μl of 1× passive lysis buffer (Promega, E1941) was added to the cells and vortexed for 10 minutes to thoroughly lysis the cells.
30 μl/well of the cell suspension was then added to a 96 well white plate (NUNC, 236108) for the measurement of the luciferase activity. Subsequently, 40 μl/well of luminescence analysis buffer and 20 μl/well of luminescence substrate (1 mM D-Luciferin) were added into the 96 well white plates. The luciferase activity (Rlu/s) was measured by a microplate luminescence meter (Berthold, MPL4) immediately.
The luciferase activity of the control was set as a standard to calculate the inhibition rates (%) of HCV of the experiment groups. The inhibition rates was calculated by the following formula: […]
After the test compounds were serial diluted and the inhibition rates of the HCV replication were determined at different concentrations, the concentration at 50% inhibition of the HCV replication (IC50) was calculated by grafit5 software (Erithacus Software).
For each experiment, 0.5 ng/ml and 0.1 ng/ml of the PEG IFN alpha-2a were used as positive controls for the IC50 test. Meanwhile, 1 μg/ml of cyclosporine A (CsA) was also used as a positive control for the IC50 test.

[4] = Hepatitis C virus, Huh-luc/neo-ET, 48 h, compound concentration 10 μM, 2 days co-culture, luciferase activity, read-out: Inhibition rate (%)
[5] = Hepatitis C virus, concentration for 50% inhibition of the HCV replication, Huh-luc/neo-ET replicon cells, read-out: IC50
[6] = compound concentration 10 μM, 2 days co-culture, luciferase activity
[7] = Hepatitis C virus, Huh-luc/neo-ET
[8] = Hepatitis C virus, Huh-luc/neo-ET, 48 h, read-out: Inhibition rate (%)

Row | Structure (SMILES) | CC15 [1] [µM] | CC50 at 2 days [2] [µM] | inhibition at 10 µM [3, 4] [%] | EW (CC50/IC50) [3] | further results
1 | CC1(C)CC[C@]2(C(=O)O)CCC3=C([C@@H](CCl)C[C@@H]4[C@@]5(C)C[C@H](O)[C@H](O)[C@@](C)(C(=O)O)[C@@H]5CC[C@@]34C)[C@@H]2C1 [A01] | >100 | > 100 | 41.5 ± 26.7 | – | –
2 | C[C@@H]1OC(O[C@H]2C(OC(=O)[C@]34CCC(C)(C)C[C@H]3C3=CC[C@@H]5[C@@]6(C)C[C@H](O)[C@@H]7OC8O[C@H](CO)[C@@H](O)[C@H](O)[C@H]8OC8OC[C@H](O)[C@H](O)[C@H]8OC(=O)CC(C)(O)CC(=O)OC[C@H]7[C@@H]6CC[C@@]5(C)[C@]3(C)CC4)OC[C@H](O)[C@@H]2O)[C@H](O)[C@H](OC2OC[C@@H](O)[C@H](O)[C@H]2O)[C@H]1O (stereo partly drawn) [A02] | 2.9 | 15.2 | 96.7 ± 0.6 | 44.71 | IC50 [3, 5]: 0.34 ± 0.06 µM
3 | C[C@H]1O[C@@H](O[C@H]2CC[C@@]3(C)[C@@H](CC[C@]4(C)[C@@H]3C=C[C@]35OC[C@@]6(CCC(C)(C)C[C@H]63)[C@@H](O)C[C@]54C)[C@]2(C)CO)[C@H](O)[C@@H](O[C@@H]2O[C@H](CO)[C@@H](O)[C@H](O)[C@H]2O)[C@H]1O [A03, Saikosaponin A] | 12.7 | – | – | – | CC50 [1]: 23.1 µM; Inhibition rate (%) [3, 6]: 13.3 ± 8%
4 | C[C@@H]1O[C@@H](O[C@@H]2[C@H](O)[C@@H](O)[C@H](O[C@H]3CC[C@@]4(C)C(CC[C@]5(C)C4C=C[C@]46OC[C@@]7(CCC(C)(C)CC74)[C@@H](O)C[C@]65C)C3(C)C)O[C@@H]2CO[C@@H]2O[C@H](CO)[C@@H](O)[C@H](O)[C@H]2O)[C@H](O)[C@H](O)[C@H]1O (stereo partly drawn) [A04, Saikosaponin C] | >100 | – | – | – | CC50 [1]: > 100 µM; Inhibition rate (%) [3, 6]: 3.1 ± 12.9%
5 | C[C@H]1O[C@@H](O[C@H]2CC[C@@]3(C)[C@@H](CC[C@]4(C)[C@@H]3C=C[C@]35OC[C@@]6(CCC(C)(C)C[C@H]63)[C@H](O)C[C@]54C)[C@]2(C)CO)[C@H](O)[C@@H](O[C@@H]2O[C@H](CO)[C@@H](O)[C@H](O)[C@H]2O)[C@H]1O [A05, Saikosaponin D] | 16.1 | – | – | – | CC50 [1]: 23.2 µM; Inhibition rate (%) [3, 6]: 50 ± 11.6%
6 | CC(=O)OCC1OC(OC2COC(OC3COC(OC4C(OC5C(CO)OC(OC6CCC7(C)C(CCC8(C)C7CC=C7C9CC(C)(C)CCC9(C(=O)OC9OC(CO)C(O)C(O)C9OC9OCC(O)C(OC%10OCC(O)(CO)C%10O)C9O)C(O)CC78C)C6(C)C)C(O)C5O)OCC(O)C4O)C(O)C3O)C(O)C2O)C(OC(=O)/C=C/c2ccccc2)C(O)C1OC(C)=O (stereo not drawn) [A06] | 8.9 | 25.2 | – | 2520 | inhibition at 8 µM ([3]; Hepatitis C virus, Huh-luc/neo-ET, 48 h, compound concentration 8 μM, 2 days co-culture, luciferase activity, read-out: Inhibition rate (%)): 94.7 ± 1.1%; IC50 [3, 5]: 0.01 ± 0.004 µM
7 | CC(=O)OC1C(OC(C)=O)[C@]2(CO)C(OC(C)=O)C[C@]3(C)C(=CCC4[C@@]5(C)CC[C@H](OC6OC(C(C)=O)C(O)C(OC7OC(CO)C(O)C(O)C7O)C6O)C(C)(C)C5CC[C@]43C)C2CC1(C)C (stereo partly drawn) [A07] | >100 | > 100 | 10.3 ± 11.7 | – | –
8 | CC1(C)CC[C@]2(C(=O)O)CC[C@]3(C)C(=CCC4[C@@]5(C)C[C@@H](O)[C@H](O)[C@@](C)(COC(=O)/C=C/c6ccc(O)cc6)C5CC[C@]43C)C2C1 (stereo partly drawn) [A08] | 9.6 | 72 | 0.4 ± 22 | – | –
9 | CC1(C)CC[C@]2(C(=O)O)CC[C@]3(C)C(=CCC4[C@@]5(C)C[C@@H](O)[C@H](OC(=O)/C=C/c6ccc(O)cc6)C(C)(C)C5CC[C@]43C)C2C1 (stereo partly drawn) [A09] | 3.1 | 26.1 | 13.6 ± 0.5 | – | –
10 | C=CC(C)(O)CCCC(C)C(=O)OC1C(OC2OCC(OC3OC(CO)C(O)C(O)C3O)C(OC3OCC(O)C(OC4OC(CO)C(O)C(O)C4O)C3O)C2O)COC(OC(=O)C23CCC(C)(C)CC2C2=CCC4C5(C)CCC(OC6OC(CO)C(OC7OC(CO)C(O)C(OC8OCC(O)C(O)C8O)C7O)C(O)C6O)C(C)(C)C5CCC4(C)C2(C)CC3O)C1O (stereo not drawn) [A10] | 2.2 | 39.1 | – | 126.13 | inhibition at 2 µM ([3]; Hepatitis C virus, Huh-luc/neo-ET, 48 h, compound concentration 2 μM, 2 days co-culture, luciferase activity, read-out: Inhibition rate (%)): 95.7 ± 0.6%; IC50 [3, 5]: 0.31 ± 0.04 µM
11 | C/C=C(/C)C(=O)OC1C(O)C(C)(C)CC2C3=CCC4C5(C)CCC(OC6OC(C(=O)O)C(O)C(OC7OCC(O)C(O)C7O)C6OC6OC(CO)C(O)C(O)C6O)C(C)(C)C5CCC4(C)C3(C)C(OC(C)=O)C(O)C21CO (stereo not drawn) [A11] | 6.1 | 29.8 | – | – | inhibition at 5 µM ([3]; Hepatitis C virus, Huh-luc/neo-ET, 48 h, compound concentration 5 μM, 2 days co-culture, luciferase activity, read-out: Inhibition rate (%)): 28.3 ± 9.1%
12 | COc1ccc(/C=C/C(=O)OC2C(C)OC(OC(=O)C34CCC(C)(C)CC3C3=CCC5[C@@]6(C)CC[C@H](OC7OC(C(=O)O)C(O)C(O)C7OC7OC(CO)C(O)C(O)C7O)[C@@](C)(C=O)C6CC[C@@]5(C)[C@]3(C)C[C@H]4O)C(OC3OC(C)C(O)C(O)C3OC3OCC(O)C(O)C3O)C2O)cc1 (stereo partly drawn) [A12] | >100 | > 100 | – | 1250 | IC50 [3, 7]: 0.08 ± 0.003 µM; inhibition at 10 µM [3, 8]: 95.8 ± 1%
13 | CC(=O)OC1C(OC(=O)C(C)C)C2(CO)C(CC1(C)C)C1=CCC3C4(C)CCC(OC5OC(C)C(OC6OC(C(=O)O)C(O)C(OC7OC(CO)C(O)C(O)C7OC7OC(CO)C(O)C(O)C7O)C6O)C(O)C5O)C(C)(C)C4CCC3(C)C1(C)C(O)C2O (stereo not drawn) [A13] | 16.1 | 100 | – | 30.21 | inhibition at 15 µM ([3]; Hepatitis C virus, Huh-luc/neo-ET, 48 h, compound concentration 15 μM, 2 days co-culture, luciferase activity, read-out: Inhibition rate (%)): 93 ± 0.4%; IC50 [3, 5]: 3.31 ± 0.29 µM
14 | C/C=C(/C)C(=O)OC1CC(C)(C)CC2C3=CCC4C5(C)CCC(OC6OC(C)C(OC7OC(C(=O)O)C(O)C(OC8OC(CO)C(O)C(O)C8OC8OC(CO)C(O)C(O)C8O)C7O)C(O)C6O)C(C)(C)C5CCC4(C)C3(C)C(OC(=O)/C=C/C=C/C=C/CCC)C(O)C12CO (stereo not drawn) [A14] | 5.9 | > 100 | – | 51.28 | IC50 [3, 7]: 1.95 ± 0.12 µM; inhibition at 5 µM [3, 8]: 89.3 ± 0.8%
